Reference: publication PMC12372887, “Mechanism and cellular actions of the potent AMPK inhibitor BAY-3827” (Science Advances, 2025)
Values joined by “and” are separate entries in the source; they are usually repeats but may differ in a detail not shown here. Equal values may be shown once. Read-outs that look alike come from different tables or passages of the source.

Assays:
[1] = molecular target: T1, AMPKα2 kinase domain (α2KD), WT (Homo sapiens, UniProt P54646); assay: Spectral shift (Dianthus) binding assay; conditions: read-out: dissociation constant (Kd)
T1 construct: human AMPK-α2 KD (α2KD; residues 6 to 280); made in house; host or cells: E. coli BL21(DE3)-RIL
T1 sequence (P54646 6-280): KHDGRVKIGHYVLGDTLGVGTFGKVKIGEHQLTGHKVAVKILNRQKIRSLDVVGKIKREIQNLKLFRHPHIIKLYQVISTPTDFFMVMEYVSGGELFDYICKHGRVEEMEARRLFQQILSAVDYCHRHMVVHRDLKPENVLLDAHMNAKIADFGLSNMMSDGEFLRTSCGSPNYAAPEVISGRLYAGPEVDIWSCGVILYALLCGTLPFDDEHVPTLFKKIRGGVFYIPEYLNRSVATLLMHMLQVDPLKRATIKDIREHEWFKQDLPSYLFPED
Protocol: (§1) The binding affinity of BAY-3827 to α2KD, AMPK (T172D)-α2KD, or AMPK complexes α2β2γ1 and α2β2γ3 was measured by Dianthus (Nano Temper Technologies). BAY-3827 was diluted from a 100 mM stock in DMSO to 0.5 mM working concentration in the assay buffer (PBS with 0.005% Tween-20) with a final DMSO concentration of 2.5%, which was kept constant throughout the concentration gradient of the compound. For additional experiments, assay buffer containing Hepes 25 mM, NaCl 250 mM, and 0.005% Tween-20 was used to optimize the assay, enhancing signal-to-noise ratios. His-tagged α2KD, T172D-α2KD, or His-tagged AMPK-α2β2γ1 or α2β2γ3 complexes were labeled with His-tag labeling dye (His-Tag Labeling Kit RED-tris-NTA 2nd Generation). The ratio of fluorescence intensities (670/650 nm) over BAY-3827 concentration gradient ranging from 250 μM down to 0.015 μM. The concentration gradient was prepared by 1:1 serial dilution over 16 steps, with a setup of two to three technical replicates for each concentration. The binding experiments were repeated three times, and the mean Kd values of the inhibitor are reported in the appropriate figure alongside ± SEM (micromolar) displaying a representative graph. A concentration of 50 nM of the corresponding protein target was used in each performed assay. The ratio of fluorescence intensities was measured over BAY-3827 concentration gradient in GraphPad Prism using nonlinear regression (one site-total binding). Data quality was assessed by monitoring XYZ scans for each well to detect air bubbles or aggregation where present following the manufacturer’s instructions.
(§2) Data points are plotted as means ± SEM. Data were inputted, and all statistical tests were performed using GraphPad Prism, version 10.1.0. One- or two-way analysis of variance (ANOVA) statistical tests were conducted using Tukey’s correction for multiple comparisons; specific test will be stated in the figure legend. Significance was accepted as P < 0.05. N number and statistical details for each experiment are reported in each figure legend. […] To estimate IC50 values, nonlinear regression fitting was conducted using the model (Inhibitor) versus response—variable slope in GraphPad Prism (version 10.1.0) and estimating values reported in nanomolar. To estimate binding affinities (Kd) from performed spectral shift binding assays, data were fitted using a one-site total model [Y = BmaxX/(Kd + X) + NSX + Background] where X is the ligand concentration, Bmax represents the maximum binding, and NS is the slope of the nonlinear regression of Y/X. Values are reported in means ± SEM in micromolar.

[2] = molecular target: T2, nonphosphorylated AMPKα2β2γ3 complex (Homo sapiens, UniProt O43741+P54646+Q9UGI9); assay: Spectral shift (Dianthus) binding assay; conditions: read-out: dissociation constant (Kd)
T2 construct: For expression of full-length AMPKα2β2γ1, α2β2γ2, and α2β2γ3 complexes; made in house; host or cells: E. coli BL21(DE3)-RIL
T2 sequence (P54646 whole entry): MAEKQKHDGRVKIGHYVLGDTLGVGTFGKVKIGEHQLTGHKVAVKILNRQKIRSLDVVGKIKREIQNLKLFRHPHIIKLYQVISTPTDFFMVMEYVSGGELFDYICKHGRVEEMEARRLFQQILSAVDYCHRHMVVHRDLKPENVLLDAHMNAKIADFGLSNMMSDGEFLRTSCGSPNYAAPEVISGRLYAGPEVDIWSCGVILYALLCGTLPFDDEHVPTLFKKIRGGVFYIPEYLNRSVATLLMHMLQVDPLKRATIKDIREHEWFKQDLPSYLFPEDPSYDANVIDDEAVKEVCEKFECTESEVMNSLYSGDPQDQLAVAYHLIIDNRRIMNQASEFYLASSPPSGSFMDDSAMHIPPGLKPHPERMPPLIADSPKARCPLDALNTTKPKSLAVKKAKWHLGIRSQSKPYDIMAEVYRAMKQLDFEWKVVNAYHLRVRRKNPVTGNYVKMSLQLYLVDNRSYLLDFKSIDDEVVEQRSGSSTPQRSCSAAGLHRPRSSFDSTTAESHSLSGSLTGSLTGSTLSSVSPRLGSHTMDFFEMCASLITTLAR
T2 sequence (O43741 whole entry partner): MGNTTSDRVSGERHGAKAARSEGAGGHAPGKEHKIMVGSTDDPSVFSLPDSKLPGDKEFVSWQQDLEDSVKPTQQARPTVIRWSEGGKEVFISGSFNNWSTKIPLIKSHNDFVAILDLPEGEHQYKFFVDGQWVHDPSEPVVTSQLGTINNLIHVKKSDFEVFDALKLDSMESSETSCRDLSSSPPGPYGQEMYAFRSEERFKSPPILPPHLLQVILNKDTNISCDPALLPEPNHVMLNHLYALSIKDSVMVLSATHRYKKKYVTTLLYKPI
T2 sequence (Q9UGI9 whole entry partner): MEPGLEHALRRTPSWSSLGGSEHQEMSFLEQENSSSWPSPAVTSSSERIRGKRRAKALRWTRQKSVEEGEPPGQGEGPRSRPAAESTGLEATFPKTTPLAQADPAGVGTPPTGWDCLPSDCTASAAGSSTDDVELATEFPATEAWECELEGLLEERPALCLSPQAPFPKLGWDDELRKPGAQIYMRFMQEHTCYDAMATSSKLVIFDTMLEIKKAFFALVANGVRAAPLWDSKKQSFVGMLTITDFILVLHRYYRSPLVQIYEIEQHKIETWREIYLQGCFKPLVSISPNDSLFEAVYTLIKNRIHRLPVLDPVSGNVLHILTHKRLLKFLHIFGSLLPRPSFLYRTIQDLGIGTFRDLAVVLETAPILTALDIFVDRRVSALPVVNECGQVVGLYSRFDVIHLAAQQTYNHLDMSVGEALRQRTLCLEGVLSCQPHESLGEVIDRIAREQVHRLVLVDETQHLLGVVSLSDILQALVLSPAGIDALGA
Protocol: as §1, §2

[3] = molecular target: T3, nonphosphorylated AMPKα2β2γ1 complex (Homo sapiens, UniProt O43741+P54619+P54646); assay: Spectral shift (Dianthus) binding assay; conditions: read-out: dissociation constant (Kd)
T3 construct: For expression of full-length AMPKα2β2γ1, α2β2γ2, and α2β2γ3 complexes; made in house; host or cells: E. coli BL21(DE3)-RIL
T3 sequence (P54646 whole entry): as the sequence (P54646 whole entry) above
T3 sequence (O43741 whole entry partner): as the sequence (O43741 whole entry partner) above
T3 sequence (P54619 whole entry partner): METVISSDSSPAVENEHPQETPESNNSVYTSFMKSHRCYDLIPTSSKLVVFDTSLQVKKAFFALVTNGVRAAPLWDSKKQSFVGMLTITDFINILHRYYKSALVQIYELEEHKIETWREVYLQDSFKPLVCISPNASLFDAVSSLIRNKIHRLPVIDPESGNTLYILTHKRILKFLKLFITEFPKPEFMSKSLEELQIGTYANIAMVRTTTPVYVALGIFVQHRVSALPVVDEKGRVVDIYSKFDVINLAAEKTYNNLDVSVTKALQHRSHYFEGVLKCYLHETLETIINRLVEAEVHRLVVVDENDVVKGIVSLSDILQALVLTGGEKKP
Protocol: as §1, §2

AMPKα2 (T172D)–α2KD = molecular target: T4, AMPKα2 (T172D)–α2KD (Homo sapiens, UniProt P54646, T172D); assay: Spectral shift (Dianthus) binding assay; conditions: read-out: dissociation constant (Kd)
T4 construct: human AMPK-α2 KD (α2KD; residues 6 to 280); made in house; host or cells: E. coli BL21(DE3)-RIL
T4 sequence (P54646 6-280 T172D): as the sequence (P54646 6-280) above, with T167D counted along it
Protocol: as §1, §2

AMPKα2β2γ1 [4] = molecular target: T5, AMPKα2β2γ1 (Homo sapiens, UniProt O43741+P54619+P54646); assay: Cell-free AMPK kinase assay (SAMS peptide); type: biochemical
T5 construct: made in house; host or cells: HEK293 (transient transfection, anti-FLAG immunoprecipitate)
T5 sequence (P54646 whole entry): as the sequence (P54646 whole entry) above
T5 sequence (O43741 whole entry partner): as the sequence (O43741 whole entry partner) above
T5 sequence (P54619 whole entry partner): as the sequence (P54619 whole entry partner) above
Protocol: (§3) Heterotrimeric human AMPK FLAG- α1β1γ1, FLAG- α2β1γ1, and FLAG- α2β2γ1, as well as human FLAG-CaMKK2 and FLAG-ULK1, were produced in mammalian HEK293 cells as described ([66], [67]). For AMPK expression, the cells were triply transfected at 60% confluency using FuGene HD (Roche Applied Science) and 1 μg of pcDNA3 plasmid expression constructs for AMPK Flag-α1, β1-Myc, β2-Myc, and HA-γ1. For CaMKK2 expression, the cells were transfected with 1 μg of pcDNA3 Flag-CaMKK2 plasmid. For ULK1 expression, the cells were transfected with […] of pcDNA3 FLAG-ULK1 plasmid. After 48 hours, the transfected cells were harvested by rinsing with ice-cold PBS, followed by rapid lysis using 500 μl of lysis buffer. AMPK, CaMKK2, and ULK1 kinase activities were determined by phosphorylation of synthetic peptide substrates: SAMS (HMRSAMSGLHLVKRR), CaMKKtide ([…]), and S108tide. (KLPLTRSHNNFVARRR), respectively. Briefly, recombinant AMPK, CaMKK2, or ULK1 were immunoprecipitated from 10 μg of transfected cultured cell lysate using 10 μl of anti-FLAG M2 agarose beads [50% (v/v)] (Merck MilliporeSigma), washed, and then added to a 25-μl reaction containing assay buffer [50 mM Hepes-NaOH (pH 7.4), 1 mM DTT, and 0.02% (v/v) Brij-35], 200 μM synthetic peptide substrate (SAMS, CaMKKtide, or S108tide), 200 or 20 μM [γ-^32P]-ATP (PerkinElmer), 5 mM MgCl2, in the presence of 0 to 1 μM BAY-3827 or BAY-974. Reactions were performed at 30°C and terminated after 10 min by spotting 15 μl onto phosphocellulose paper. Radioactivity was quantified by liquid scintillation counting. Data visualization and nonlinear regression fitting were performed in GraphPad Prism v10.
as §2

AMPKα2β1γ1 [5] = molecular target: T6, AMPKα2β1γ1 (Homo sapiens, UniProt P54619+P54646+Q9Y478); assay: Cell-free AMPK kinase assay (SAMS peptide); type: biochemical
T6 construct: made in house; host or cells: HEK293 (transient transfection, anti-FLAG immunoprecipitate)
T6 sequence (P54646 whole entry): as the sequence (P54646 whole entry) above
T6 sequence (Q9Y478 whole entry partner): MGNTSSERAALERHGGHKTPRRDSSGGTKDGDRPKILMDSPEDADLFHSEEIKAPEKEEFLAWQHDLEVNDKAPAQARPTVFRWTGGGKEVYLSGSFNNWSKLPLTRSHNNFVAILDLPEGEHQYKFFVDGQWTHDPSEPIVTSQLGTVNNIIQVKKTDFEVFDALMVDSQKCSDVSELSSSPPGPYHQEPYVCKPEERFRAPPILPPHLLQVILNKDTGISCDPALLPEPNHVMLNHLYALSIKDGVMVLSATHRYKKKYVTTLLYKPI
T6 sequence (P54619 whole entry partner): as the sequence (P54619 whole entry partner) above
Protocol: as §3, §2

AMPKα1β1γ1 [6] = molecular target: T7, AMPKα1β1γ1 (Homo sapiens, UniProt P54619+Q13131+Q9Y478); assay: Cell-free AMPK kinase assay (SAMS peptide); type: biochemical
T7 construct: made in house; host or cells: HEK293 (transient transfection, anti-FLAG immunoprecipitate)
T7 sequence (Q13131 whole entry): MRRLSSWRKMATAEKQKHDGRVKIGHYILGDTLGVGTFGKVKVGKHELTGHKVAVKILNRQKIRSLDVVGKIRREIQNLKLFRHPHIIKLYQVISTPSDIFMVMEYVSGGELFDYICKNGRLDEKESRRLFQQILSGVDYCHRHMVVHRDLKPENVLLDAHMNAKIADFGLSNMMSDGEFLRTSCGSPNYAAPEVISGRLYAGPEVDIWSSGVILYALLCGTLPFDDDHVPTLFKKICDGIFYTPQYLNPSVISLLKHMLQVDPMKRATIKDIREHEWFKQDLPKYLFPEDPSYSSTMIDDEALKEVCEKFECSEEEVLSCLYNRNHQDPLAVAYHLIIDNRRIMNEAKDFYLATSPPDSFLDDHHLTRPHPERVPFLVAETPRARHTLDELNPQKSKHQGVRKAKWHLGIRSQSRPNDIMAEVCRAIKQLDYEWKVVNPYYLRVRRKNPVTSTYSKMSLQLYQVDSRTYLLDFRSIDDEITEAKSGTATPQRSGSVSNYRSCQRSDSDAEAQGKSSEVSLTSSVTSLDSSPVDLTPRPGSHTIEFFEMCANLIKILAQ
T7 sequence (Q9Y478 whole entry partner): as the sequence (Q9Y478 whole entry partner) above
T7 sequence (P54619 whole entry partner): as the sequence (P54619 whole entry partner) above
Protocol: as §3, §2

AMPKα2β2γ1 [7] = molecular target: T8, AMPKα2β2γ1 (Homo sapiens, UniProt P54646); assay: Cell-free AMPK kinase assay (SAMS peptide); type: biochemical; conditions: 200 μM ATP; 0 to 1 μM compound
T8 construct: made in house; host or cells: HEK293 (transient transfection, anti-FLAG immunoprecipitate)
T8 sequence (P54646 whole entry): as the sequence (P54646 whole entry) above
T8 sequence (O43741 whole entry partner): as the sequence (O43741 whole entry partner) above
T8 sequence (P54619 whole entry partner): as the sequence (P54619 whole entry partner) above
Protocol: as §3, §2

AMPKα2β1γ1 [8] = molecular target: T9, AMPKα2β1γ1 (Homo sapiens, UniProt P54646); assay: Cell-free AMPK kinase assay (SAMS peptide); type: biochemical; conditions: 200 μM ATP; 0 to 1 μM BAY-974
T9 construct: made in house; host or cells: HEK293 (transient transfection, anti-FLAG immunoprecipitate)
T9 sequence (P54646 whole entry): as the sequence (P54646 whole entry) above
T9 sequence (Q9Y478 whole entry partner): as the sequence (Q9Y478 whole entry partner) above
T9 sequence (P54619 whole entry partner): as the sequence (P54619 whole entry partner) above
Protocol: as §3, §2

AMPKα1β1γ1 [9] = molecular target: T10, AMPKα1β1γ1 (Homo sapiens, UniProt Q13131); assay: Cell-free AMPK kinase assay (SAMS peptide); type: biochemical; conditions: 200 μM ATP; 0 to 1 μM compound
T10 construct: made in house; host or cells: HEK293 (transient transfection, anti-FLAG immunoprecipitate)
T10 sequence (Q13131 whole entry): as the sequence (Q13131 whole entry) above
T10 sequence (Q9Y478 whole entry partner): as the sequence (Q9Y478 whole entry partner) above
T10 sequence (P54619 whole entry partner): as the sequence (P54619 whole entry partner) above
Protocol: as §3, §2

## CCc1ccccc1C(=O)Nc1n[nH]c2c(C)c(F)c(C3C(C#N)=C(C)N(C)C(C)=C3C#N)cc12 [BAY-3827, N-[5-(3,5-dicyano-1,2,6-trimethyl-4H-pyridin-4-yl)-6-fluoro-7-methyl-1H-indazol-3-yl]-2-ethylbenzamide]
[1]; +3 mM DTT
  Kd: 28600 ± 12500 nM
[1]; without DTT
  Kd: 1230 nM
[2]
  Kd: 21800 ± 8510 nM
[3]
  Kd: 11300 ± 5230 nM
AMPKα2 (T172D)–α2KD; +3 mM DTT
  Kd: 9010 ± 1850 nM
AMPKα2 (T172D)–α2KD; - DTT
  Kd: 8650 ± 1380 nM
AMPKα2β2γ1 [4]; 20 μM ATP
  IC50: 2.8 nM and 2.83 nM
AMPKα2β2γ1 [4]; 200 μM ATP
  IC50: 36.5 nM
AMPKα2β1γ1 [5]; 20 μM ATP
  IC50: 4.1 nM and 4.08 nM
AMPKα2β1γ1 [5]; 200 μM ATP
  IC50: 57 nM and 57.1 nM
AMPKα1β1γ1 [6]; 20 μM ATP
  IC50: 1.8 nM
AMPKα1β1γ1 [6]; 200 μM ATP
  IC50: 31.2 nM

## CC1=C(C#N)C(c2ccc3c(c2)c(NC(=O)c2ccccc2C)nn3C)C(C#N)=C(C)N1 [BAY-974, N-[5-(3,5-dicyano-2,6-dimethyl-1,4-dihydropyridin-4-yl)-1-methylindazol-3-yl]-2-methylbenzamide]
AMPKα2β2γ1 [7]
  inhibitory effect on AMPK complex: no effect
AMPKα2β1γ1 [8]
  inhibitory effect on AMPK complex: no effect
AMPKα1β1γ1 [9]
  inhibitory effect on AMPK complex: no effect
